Like-named read-outs stand apart in the source and are kept apart here.
Experiments:
[1] = target: T1, dopamine D-2 receptors (Rattus norvegicus, UniProt P61169); assay: inhibition of 3H-spiperone binding to dopamine D-2 receptors in rat corpus striatum in vitro; details: 3H-spiperone 0.5 nM, rat corpus striatum membranes, in vitro; read-out: Binding IC50, 3H Spi.
T1 construct: striatal tissue is dissected and weighed; from tissue; host or cells: corpus striatum membranes of male Wistar rats
Outline: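 Rat striatal membranes from male Wistar rats in 50 mM K-phosphate pH 7.4 incubated 10 min at 37 °C with 0.5 nM ³H-spiperone and five drug concentrations over 3 decades. Bound radioactivity collected by filtration and counted by scintillation; nonspecific binding defined with 10 μM 6,7-ADTN.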

[2] = target: α1 adrenoceptors; assay: inhibition of 3H-prazosin binding to α1 adrenoceptors in rat brain in vitro; details: 3H-prazosin 0.25 nM, rat brain membranes, read-out: Binding IC50, 3H Praz.
[3] = target: T2, 5-HT2 (Rattus norvegicus, UniProt P14842); assay: quipazine inhibition (quipazine-induced head twitches in rats); format: in vivo
T2 construct: Four rats, male Wistar (Mol:Wist) SPF rats weighing 170-240 g; from tissue; host or cells: living male Wistar (Mol:Wist) SPF rats (in vivo, endogenous receptor)
Protocol: Quipazine is a 5-HT2 agonist, which induces head twitches in rats. The test is a test for 5-HT2 -antagonistic effect testing the ability to inhibit head twitches. The method and test results for some reference substances are published by Arnt et al. (Drug Development Research, 16, 59-70, 1989).
Test substance is injected s.c. 2 hrs before or p.o. 24 hrs before quipazine administration (6.8 mg/kg, s.c., dimaleate). Four rats, male Wistar (Mol:Wist) SPF rats weighing 170-240 g, are used at each dose level. A control group is included each test day. By repeated testing (2, 24 hrs) the control group is the same, however. After quipazine administration the rats are individually placed in the observation cages and head twitches are counted in an observation period of 30-40 min. after injection of quipazine.
Total number of head twitches in each group is calculated and the result for each dose is expressed as per cent of the response in the control group. ED50 values are calculated by log-probit analysis. The test must be repeated if the average number of head twitches is lower than 9 in the control group.

[4] = po, 24 h, read-out: Quipazine inhibition ED50, 24h (po)
[5] = sc, 2 h, read-out: Quipazine inhibition ED50, 2h (sc)

T1 sequence (P61169 whole entry): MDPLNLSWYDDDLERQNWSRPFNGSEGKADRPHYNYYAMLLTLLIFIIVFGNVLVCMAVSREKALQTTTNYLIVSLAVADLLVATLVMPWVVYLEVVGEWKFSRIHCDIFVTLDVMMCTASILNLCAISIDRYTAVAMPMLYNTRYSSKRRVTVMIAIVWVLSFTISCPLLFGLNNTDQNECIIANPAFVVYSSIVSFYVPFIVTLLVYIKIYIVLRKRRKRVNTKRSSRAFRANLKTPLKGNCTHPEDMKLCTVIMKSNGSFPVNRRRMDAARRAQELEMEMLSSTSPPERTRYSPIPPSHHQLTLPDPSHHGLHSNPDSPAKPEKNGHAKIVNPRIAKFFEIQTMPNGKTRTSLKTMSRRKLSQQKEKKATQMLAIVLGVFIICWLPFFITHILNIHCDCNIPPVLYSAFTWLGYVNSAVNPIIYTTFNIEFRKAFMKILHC
T2 sequence (P14842 whole entry): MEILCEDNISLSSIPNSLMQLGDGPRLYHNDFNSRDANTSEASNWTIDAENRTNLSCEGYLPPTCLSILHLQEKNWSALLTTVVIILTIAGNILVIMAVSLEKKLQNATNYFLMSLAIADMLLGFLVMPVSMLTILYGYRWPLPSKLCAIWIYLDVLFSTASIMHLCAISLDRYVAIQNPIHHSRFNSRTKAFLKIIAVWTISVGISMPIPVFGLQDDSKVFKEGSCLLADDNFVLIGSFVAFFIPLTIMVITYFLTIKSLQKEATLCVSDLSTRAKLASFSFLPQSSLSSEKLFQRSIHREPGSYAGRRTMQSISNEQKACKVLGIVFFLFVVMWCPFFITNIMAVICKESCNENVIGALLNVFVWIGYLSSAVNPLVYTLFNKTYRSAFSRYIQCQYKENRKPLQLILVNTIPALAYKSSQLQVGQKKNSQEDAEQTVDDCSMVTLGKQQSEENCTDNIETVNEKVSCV

SMILES	IC50 [1] [nM]	IC50 [2] [nM]	ED50 [3, 4] [µmol/kg]	ED50 [3, 5] [µmol/kg]	Quipazine inhibition ED50, 2h (sc) ([3]; s.c., 2 h before quipazine) [µmol/kg]
CC(C)N1CCN(CCN2CCC(c3cn(-c4ccc(F)cc4)c4cc(Cl)ccc34)CC2)C1=O [Compound 4a, 6-chloro-1-(4-fluorophenyl)-3-[1-[2-[3-(2-propyl)-2-imidazolidinon-1-yl]ethyl]-4-piperidyl]-1H-indole]	130	70	0.06	0.11	
Cc1ccc2c(C3CCN(CCN4CCNC4=O)CC3)cn(-c3ccc(F)cc3)c2c1 [Compound 4g, 1-(4-fluorophenyl)-3-[1-[2-(2-imidazolidinon-1-yl)ethyl]-4-piperidyl]-6-methyl-1H-indole]	270	24	0.04	0.02	
Cc1ccc2c(C3CCN(CCN4CCN(C(C)C)C4=O)CC3)cn(-c3ccc(F)cc3)c2c1 [Compound 5a, 1-(4-fluorophenyl)-6-methyl-3-[1-[2-[3-(2-propyl)-2-imidazolidinon-1-yl]ethyl]-4-piperidyl]-1H-indole]	190	85	0.11	0.04	
OCCN1CCN(c2cn(-c3ccc(F)cc3)c3ccc(C(F)(F)F)cc23)CC1 [Lu 21-152, 1-(4-fluorophenyl)-3-[4-(2-hydroxyethyl)-1-piperazinyl]-5-trifluoromethyl-1H-indole, reference compound]	2.6	7.6			0.02
